Test system: NMRI mice
Test: Determination of the acute toxicity (NMRI mice, intravenous)
Type: in vivo
Conditions: intravenous on day 0, survival on day 14, which LD not stated
Method: To determine the acute toxicity, NMRI mice are injected intravenously on day 0 with different doses of the test substance, dissolved in 0.5 ml of physiological saline solution. Control groups receive only 0.5 ml of physiological saline solution. 5 mice are used per concentration of the test substance. On day 14, the number of surviving mice is determined and the LD5, LD50 and LD95 are determined therefrom by the Litchfield Wilcoxon method. The toxicity of the compounds described here is summarized in comparison with cisplatin in Table 1.

Substance: 5,5-Bis-(aminomethyl)-2-methyl-2-octadecyl-1,3-dioxane-platinum(II) hydroxide [Compound 57]
- Acute toxicity (LD5, LD50 and LD95 by the Litchfield Wilcoxon method) (Table 1, column c): 3.4

From patent US4730069A, “Cis-platinum complexes with a pentaerythritol derivative as the ligand, a process for their preparation and a pharmaceutical agent containing these compounds” (Behringwerke Aktiengesellschaft, priority 1984, dated 1988)
